# According to US11447479B2, “Compounds active towards nuclear receptors” (NUEVOLUTION A/S, priority 2019, dated 2022):
# Tested on: Th17 cells
# Experiment: Th17 assay (IL-17 in supernatants of differentiating human naive CD4+ T cells, ELISA)
# Assay type: cell-based
# Settings: 168 h, Th17 differentiation for seven days with test compound, IL-17 levels in supernatants by ELISA
# Experimental: Th17 Assay (Another Suitable Assay)
# The following modifications were made to the manufacturer's protocol: 1) Incubation with Biotin-Antibody Cocktail and Anti-Biotin MicroBeads was prolonged to 30 minutes, and 2) Cells were washed with 40 mL of Miltenyi buffer. Differentiation of Th17 cells in anti-CD3 (BD Pharmingen, 5 μg/ml) coated 96-well plates (400,000 cells/well, 160 μl RPMI1640+10% Fetal Bovine Serum) containing 5 μg/ml anti-CD28 (BD Pharmingen), 10 ng/ml IL-2 (R&D Systems), 2.5 ng/ml TGFβ-1 (R&D Systems), 20 ng/ml IL-1β (R&D Systems), 20 ng/ml IL-6 (R&D Systems), 30 ng/ml IL-23 (R&D Systems), 2.5 μg/ml anti-IL-4 (R&D Systems) and 1 μg/ml anti-IFNγ (R&D Systems) and with test compound during the entire differentiation (or vehicle, 0.1% DMSO for control). Test compounds were tested in triplicates, diluted 1000-fold in medium (final DMSO concentration is 0.1%). Incubated for seven days at 37° C., 5% CO2, 95% humidity, and 2-fluoro-4′-[[4-(4-pyridinylmethyl)-1-piperazinyl]methyl]-α,α-bis(trifluoromethyl)-[1,1′-biphenyl]-4-methanol (SR2211 Calbiochem, Cat. No. 557353) was used as positive control. As negative control, cells were differentiated into Th0 using 5 μg/ml anti-CD28 (BD Pharmingen), 10 ng/ml IL-2 (R&D Systems), 2 μg/ml anti-IL4 (R&D Systems) and 2 μg/ml anti-IFNγ (R&D Systems) are negative control. IL-17 levels in supernatants were measured with ELISA (R&D Systems).
row,IC50,Structure (SMILES)
1,161 nM,"NC(=O)CN1CCC(CNc2ncnc(N3CCOC[C@@H]3c3ccc(C(F)(F)F)cc3)c2F)CC1 [Example H6-5, (S)-2-(4-(((5-fluoro-6-(3-(4-(trifluoromethyl)phenyl)morpholino)pyrimidin-4-yl)amino)methyl)piperidin-1-yl)acetamide]"

# Target: T1, RORγ (Homo sapiens, UniProt P51449)
# T1 construct: Gal4 (galactose-responsive transcription factor); expressed in transfected cells; host or cells: HEK293
# T1 sequence (P51449 269-508 limits assumed): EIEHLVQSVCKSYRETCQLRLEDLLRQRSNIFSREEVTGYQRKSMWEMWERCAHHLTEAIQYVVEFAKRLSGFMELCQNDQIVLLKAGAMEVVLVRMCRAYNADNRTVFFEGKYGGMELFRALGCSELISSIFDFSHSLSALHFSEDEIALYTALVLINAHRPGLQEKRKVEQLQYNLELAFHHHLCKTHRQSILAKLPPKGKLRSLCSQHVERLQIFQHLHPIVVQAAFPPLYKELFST
# Experiment: RORγ Reporter Assay (Gal4)
# Assay type: cell-based
# Settings: HEK293 co-transfected with RORγ LBD-Gal4 and luciferase reporter, 24 h incubation, absolute IC50; read-out: IC50
# Experimental: RORγ Reporter Assay (Gal4)
# The HEK293 cell line is co-transfected transiently with two plasmids, one with the RORγ ligand-binding domain fused to galactose-responsive transcription factor (Gal4), and the other with the luciferase reporter gene and Gal binding sites (UAS). This construction allows to determine the RORγ activity in a cellular system through the measurement of luminescence.
# A suspension of RORγ reporter cells was dispensed into plates and cultured 2 h at 37° C. and 5% CO2. Media formulation consisted in DMEM/F-12 medium (Gibco) supplemented with 10% heat inactivated FBS (Sigma-Aldrich), non-essential aminoacids (Sigma-Aldrich), 2 mM Glutamax (Gibco) and 100 U/mF penicillin (Sigma-Aldrich). Dose-response curves with compounds were prepared in 100% DMSO and further diluted […] in culture medium. Compound solutions were added to the plate containing cells (final DMSO concentration of 0.1%) and incubated for 24 h at 37° C. and 5% CO2. Luciferase detection reagent was added to each well, and relative light units […] were quantified from each assay well using a plate reading luminometer.
# Values of average RFU±S.D. were computed for all treatment sets, followed by the calculations of percent-reduction of RORγ activity in response to respective test compound. The following formula was used: activity=100*[1−[x test compound/average vehicle]where the theoretical minimum reduction (0% reduction).
row,IC50,Structure (SMILES)
1,86 nM,"C[C@@H]1COC[C@H](c2cccc(C(F)(F)F)c2)N1c1ncnc(NC[C@@H]2CCN(CC(N)=O)C[C@H]2O)c1F (single isomer, unassigned) [Example H6-21-3]"
2,120 nM,"C[C@@H]1COC[C@H](c2cccc(C(F)(F)F)c2)N1c1ncnc(NC[C@@H]2CCN(CC(N)=O)C[C@H]2O)c1F (single isomer, unassigned) [Example H6-21-4]"
3,44 nM,"C[C@@H]1COC[C@H](c2ccc(C(F)(F)F)cc2)N1c1ncnc(NC[C@@H]2CCN(CC(N)=O)C[C@H]2O)c1F (single isomer, unassigned) [Example H6-22-1]"
4,60 nM,"C[C@@H]1COC[C@H](c2ccc(C(F)(F)F)cc2)N1c1ncnc(NC[C@@H]2CCN(CC(N)=O)C[C@H]2O)c1F (single isomer, unassigned) [Example H6-22-2]"
5,910 nM,CC(C(N)=O)N1CCC(CNc2ncnc(N3CCOC[C@@H]3c3ccc(C(F)(F)F)cn3)c2F)CC1 (some centres unmarked) [Example H6-1]
6,330 nM,"NC(=O)CN1CCC(CNc2ncnc(N3CCOC[C@@H]3c3ccc(C(F)(F)F)cn3)c2F)CC1 [Example H6-2, (S)-2-(4-(((5-fluoro-6-(3-(5-(trifluoromethyl)pyridin-2-yl)morpholino)pyrimidin-4-yl)amino)methyl)piperidin-1-yl)acetamide]"
7,280 nM,"CC(C)(C(N)=O)N1CCC(CNc2ncnc(N3CCOC[C@@H]3c3ccc(C(F)(F)F)cn3)c2F)CC1 [Example H6-3, (S)-2-(4-(((5-fluoro-6-(3-(5-(trifluoromethyl)pyridin-2-yl)morpholino)pyrimidin-4-yl)amino)methyl)piperidin-1-yl)-2-methylpropanamide]"
8,56 nM,"NC(=O)CN1CCC(F)(CNc2ncnc(N3CCOC[C@@H]3c3ccc(C(F)(F)F)cc3)c2F)CC1 [Example H6-4, (S)-2-(4-fluoro-4-(((5-fluoro-6-(3-(4-(trifluoromethyl)phenyl)morpholino)pyrimidin-4-yl)amino)methyl)piperidin-1-yl)acetamide]"
9,70 nM,"NC(=O)CN1CCC(CNc2ncnc(N3CCOC[C@@H]3c3ccc(C(F)(F)F)cc3)c2F)CC1 [Example H6-5, (S)-2-(4-(((5-fluoro-6-(3-(4-(trifluoromethyl)phenyl)morpholino)pyrimidin-4-yl)amino)methyl)piperidin-1-yl)acetamide]"
10,51 nM,"NC(=O)CN1CCC(F)(CNc2ncnc(N3CCOC[C@@H]3c3ccc(OC(F)(F)F)cc3)c2F)CC1 [Example H6-6, (S)-2-(4-fluoro-4-(((5-fluoro-6-(3-(4-(trifluoromethoxy)phenyl)morpholino)pyrimidin-4-yl)amino)methyl)piperidin-1-yl)acetamide]"
11,160 nM,"NC(=O)CN1CCC(F)(CNc2ncnc(N3CCOC[C@@H]3c3ccc(C(F)(F)F)cn3)c2F)CC1 [Example H6-8, (S)-2-(4-fluoro-4-(((5-fluoro-6-(3-(5-(trifluoromethyl)pyridin-2-yl)morpholino)pyrimidin-4-yl)amino)methyl)piperidin-1-yl)acetamide]"
12,230 nM,"NC(=O)CN1CCC(O)(CNc2ncnc(N3CC(F)(F)C[C@@H]3c3ccc(C(F)(F)F)cc3)c2F)CC1 [Example H6-14, (R)-2-(4-(((6-(4,4-difluoro-2-(4-(trifluoromethyl)phenyl)pyrrolidin-1-yl)-5-fluoropyrimidin-4-yl)amino)methyl)-4-hydroxypiperidin-1-yl)acetamide]"
13,190 nM,"NC(=O)CN1CCC(CNc2ncnc(N3CCOC[C@@H]3c3ccc(OC(F)(F)F)cc3)c2F)CC1 [Example H6-23, (S)-2-(4-(((5-fluoro-6-(3-(4-(trifluoromethoxy)phenyl)morpholino)pyrimidin-4-yl)amino)methyl)piperidin-1-yl)acetamide]"
14,140 nM,"NC(=O)CN1CCC(CNc2ncnc(N3CC(F)(F)CC3c3ccc(C(F)(F)F)cc3)c2F)CC1 (centres unmarked) [Example H6-24, 2-(4-(((6-(4,4-difluoro-2-(4-(trifluoromethyl)phenyl)pyrrolidin-1-yl)-5-fluoropyrimidin-4-yl)amino)methyl)piperidin-1-yl)acetamide]"
15,88 nM,"NC(=O)CN1CCC(CNc2ncnc(N3CCCC3c3ccc(C(F)(F)F)cc3)c2F)CC1 (centres unmarked) [Example H6-25, 2-(4-(((5-fluoro-6-(2-(4-(trifluoromethyl)phenyl)pyrrolidin-1-yl)pyrimidin-4-yl)amino)methyl)piperidin-1-yl)acetamide]"
16,66 nM,"NC(=O)CN1CCC(CNc2ncnc(N3CCC[C@@H]3c3ccc(C(F)(F)F)cc3)c2F)CC1 [Example H6-25-1, (R)-2-(4-(((5-fluoro-6-(2-(4-(trifluoromethyl)phenyl)pyrrolidin-1-yl)pyrimidin-4-yl)amino)methyl)piperidin-1-yl)acetamide]"
17,440 nM,"NC(=O)CN1CCC(CNc2ncnc(N3CCCC3c3ccc(C(F)(F)F)cc3O)c2F)CC1 (centres unmarked) [Example H6-26, 2-(4-(((5-fluoro-6-(2-(2-hydroxy-4-(trifluoromethyl)phenyl)pyrrolidin-1-yl)pyrimidin-4-yl)amino)methyl)piperidin-1-yl)acetamide]"
18,300 nM,"NC(=O)CN1CCC(CNc2ncnc(N3CCC3c3ccc(C(F)(F)F)cc3)c2F)CC1 (centres unmarked) [Example H6-28, 2-(4-(((5-fluoro-6-(2-(4-(trifluoromethyl)phenyl)azetidin-1-yl)pyrimidin-4-yl)amino)methyl)piperidin-1-yl)acetamide]"

# Same assay, conditions: comparison compounds from WO2016020295, Tables 5 and 6; read-out: Gal4 assay IC50
row,IC50,Structure (SMILES)
1,< 500 nM,"NC(=O)Cc1ccc(CNc2ncnc(N3CCOC[C@@H]3c3ccc(C(F)(F)F)cc3)c2F)cc1 [Example 204, reference compound]"
2,< 1000 nM,"NC(=O)CC1CCC(CNc2ncnc(N3CCOC[C@@H]3c3ccc(C(F)(F)F)cc3)c2F)CC1 (some centres unmarked) [Example 206, reference compound]"
3,< 100 nM,"NC(=O)Cc1ccc(CNc2ncnc(N3CCOC[C@@H]3c3ccc(OC(F)(F)F)cc3)c2F)cc1 [Example 230, reference compound]"
4,< 500 nM,"NC(=O)CC1CCC(CNc2ncnc(N3CCOC[C@@H]3c3ccc(OC(F)(F)F)cc3)c2F)CC1 (some centres unmarked) [Example 245, reference compound]"
